The text below walks through data of paper PMC11684029, “Discovery of VU6024578/BI02982816: An mGlu1 Positive Allosteric Modulator with Efficacy in Preclinical Antipsychotic and Cognition Models” (Journal of Medicinal Chemistry, 2024).

The test system of test [1] is C57BL/6JRj mice. Nature of the test: 40 Hz ASSR, MK-801 induced deficit. The format is in vivo. The following applies: mouse. The source says:
We have also employed here event-related potentials (ERPs) and auditory-evoked oscillations, which serve as critical translational biomarkers, to assess the impact of our investigational drug on sensory processing and cognitive functions, providing valuable data on its potential efficacy in treating disorders like schizophrenia. Detailed description of the methodology, setup specifications and recording procedure and analysis of the 40 Hz auditory steady-state response (ASSR) protocol can be found in Schuelert et al.[27] […] Reduced entrainment of gamma oscillation reflects abnormalities in basic sensory registration and processing but is also associated with impaired higher cognitive functions.[32] ASSR can also be reliably impaired preclinically by different NMDA receptor antagonists.[33],[34] […] Abnormalities associated with the filtering or “gating” of sensory information are among the most consistent findings in schizophrenia research.[35] N100 gating deficits also correlated with negative-cognitive deficits dimensions of schizophrenia[36] and can be modeled preclinically with NMDA receptor antagonists.[37]19d reversed N1 sensory gating deficit induced by MK-801 with the highest dose of 10 mg/kg (Figure 12B). Mean plasma exposures in satellite mice after subcutaneous administration of 19d at 0.8, 4, and 10 mg/kg were 187, 1207, and 2490 nM, respectively.
The mGlu2/3 selective agonist LY379268 was used here as a positive control, applied also s.c. at 3 mg/kg dose. […] Data are shown as mean ± SEM (n = 13–19 for each treatment group). *P < 0.05, **P < 0.01, ***P < 0.005 compared with vehicle; #P < 0.05, ##P < 0.01 compared with MK-801. […]
Mice were placed in a plexiglass cage in an attenuated sound box and allowed to adapt to their environment for 20 min before subcutaneous administration of VU6024578 0.8, 4, and 10 mg/kg or vehicle (20% HP-β-CD in water). […] An infrared sensor on the Neurologger recorded the infrared trigger signals and trigger signals were saved in an individual trigger channel. […]

Test [2] concerns the target T1, mu (MOP) (Homo sapiens, UniProt P35372).
T1 construct: Eurofins
Nature of the test: Eurofins radioligand binding panel. Conditions: agonist radioligand. The source says:
(§1) Table S1. Eurofins Lead Profiling Screen Data
(§2) This is a radioligand binding panel of 80 targets including GPCRs, ion channels, transporters and nuclear hormones. Biochemical assay results are presented as the percent inhibition of specific […]
(§3) Results showing an inhibition or stimulation higher than 50% are considered to represent significant effect and are highlighted

Test [3] deals with T2, 5-HT transporter (Homo sapiens, UniProt P31645).
T2 construct: Eurofins
Description: Eurofins radioligand binding panel. The following applies: antagonist radioligand.
Description: as §1, §2, §3

Test [4] has as its system Na+ channel (site 2). Description: Eurofins radioligand binding panel. Conditions: antagonist radioligand.
Description: as §1, §2, §3

Test [5] concerns the target T3, D2S (Homo sapiens, UniProt P14416).
T3 construct: Eurofins (panel run as a service)
Description: Eurofins radioligand binding panel. Conditions: antagonist radioligand.
Description: as §1, §2, §3

Test [6] deals with T4, D1 (Homo sapiens, UniProt P21728).
T4 construct: Eurofins (panel run as a service)
Description: Eurofins radioligand binding panel. Conditions: antagonist radioligand.
Description: as §1, §2, §3

The target in test [7] is T5, kappa (KOP) (Homo sapiens, UniProt P41145).
T5 construct: Eurofins
Description: Eurofins radioligand binding panel. The following applies: agonist radioligand.
Description: as §1, §2, §3

Test [8] has as its target T6, CCR1 (Homo sapiens, UniProt P32246).
T6 construct: Eurofins (panel run as a service)
Nature of the test: Eurofins radioligand binding panel. Conditions: agonist radioligand.
Description: as §1, §2, §3

In test [9] the target is T7, D4.4 (Homo sapiens, UniProt P21917).
T7 construct: Eurofins (panel run as a service)
Description: Eurofins radioligand binding panel. Conditions: antagonist radioligand.
Description: as §1, §2, §3

For test [10], the target named is T8, CXCR2 (IL-8B) (Homo sapiens, UniProt P25025).
T8 construct: Eurofins (panel run as a service)
Nature of the test: Eurofins radioligand binding panel. The following applies: agonist radioligand.
Description: as §1, §2, §3

The target in test [11] is T9, M1 (Homo sapiens, UniProt P11229).
T9 construct: Eurofins
Nature of the test: Eurofins radioligand binding panel. The following applies: antagonist radioligand.
Description: as §1, §2, §3

For test [12], the target named is T10, D3 (Homo sapiens, UniProt P35462).
T10 construct: Eurofins (panel run as a service)
Nature of the test: Eurofins radioligand binding panel. The following applies: antagonist radioligand.
Description: as §1, §2, §3

Test [13] concerns the target T11, NOP (ORL1) (Homo sapiens, UniProt P41146).
T11 construct: Eurofins
Description: Eurofins radioligand binding panel. The following applies: agonist radioligand.
Description: as §1, §2, §3

The target of test [14] is T12, NK2 (Homo sapiens, UniProt P21452).
T12 construct: Eurofins
Nature of the test: Eurofins radioligand binding panel. The following applies: agonist radioligand.
Description: as §1, §2, §3

Test [15] has as its target T13, V1a (Homo sapiens, UniProt P37288).
T13 construct: Eurofins
Description: Eurofins radioligand binding panel. Conditions: agonist radioligand.
Description: as §1, §2, §3

In test [16] the target is T14, D5 (Homo sapiens, UniProt P21918).
T14 construct: Eurofins (panel run as a service)
Nature of the test: Eurofins radioligand binding panel. The following applies: antagonist radioligand.
Description: as §1, §2, §3

The target in test [17] is T15, delta (DOP) (Homo sapiens, UniProt P41143).
T15 construct: Eurofins
Nature of the test: Eurofins radioligand binding panel. The following applies: agonist radioligand.
Description: as §1, §2, §3

Test [18] concerns the target T16, EP2 (Homo sapiens, UniProt P43116).
T16 construct: Eurofins
Description: Eurofins radioligand binding panel. Conditions: agonist radioligand.
Description: as §1, §2, §3

For test [19], the target named is T17, 5-HT2C (Homo sapiens, UniProt P28335).
T17 construct: Eurofins
Description: Eurofins radioligand binding panel. The following applies: antagonist radioligand.
Description: as §1, §2, §3

Test [20] concerns the target T18, norepinephrine transporter (Homo sapiens, UniProt P23975).
T18 construct: Eurofins
Description: Eurofins radioligand binding panel. Conditions: antagonist radioligand.
Description: as §1, §2, §3

The structures appear in SMILES notation.

T6 sequence (P32246 whole entry): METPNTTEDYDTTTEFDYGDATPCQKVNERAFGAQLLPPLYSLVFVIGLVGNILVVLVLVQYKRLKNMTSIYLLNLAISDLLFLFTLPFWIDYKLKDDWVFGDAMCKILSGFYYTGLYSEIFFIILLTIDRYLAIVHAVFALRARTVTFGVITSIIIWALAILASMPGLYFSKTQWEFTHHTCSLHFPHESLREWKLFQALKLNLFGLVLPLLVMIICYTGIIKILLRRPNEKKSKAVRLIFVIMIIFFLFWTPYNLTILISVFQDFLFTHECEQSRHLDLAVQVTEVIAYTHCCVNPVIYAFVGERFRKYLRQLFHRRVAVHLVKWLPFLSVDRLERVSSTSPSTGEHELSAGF
T10 sequence (P35462 whole entry): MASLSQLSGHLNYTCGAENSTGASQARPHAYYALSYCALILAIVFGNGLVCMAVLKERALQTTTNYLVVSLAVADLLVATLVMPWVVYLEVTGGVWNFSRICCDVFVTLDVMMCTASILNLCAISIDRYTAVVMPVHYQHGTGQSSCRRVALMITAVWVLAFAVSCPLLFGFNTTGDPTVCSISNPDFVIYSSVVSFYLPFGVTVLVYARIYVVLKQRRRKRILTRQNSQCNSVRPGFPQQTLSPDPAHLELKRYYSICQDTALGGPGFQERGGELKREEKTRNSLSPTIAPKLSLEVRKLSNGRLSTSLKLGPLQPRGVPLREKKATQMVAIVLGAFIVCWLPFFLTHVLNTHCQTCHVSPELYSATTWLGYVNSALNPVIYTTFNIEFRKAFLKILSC
T8 sequence (P25025 whole entry): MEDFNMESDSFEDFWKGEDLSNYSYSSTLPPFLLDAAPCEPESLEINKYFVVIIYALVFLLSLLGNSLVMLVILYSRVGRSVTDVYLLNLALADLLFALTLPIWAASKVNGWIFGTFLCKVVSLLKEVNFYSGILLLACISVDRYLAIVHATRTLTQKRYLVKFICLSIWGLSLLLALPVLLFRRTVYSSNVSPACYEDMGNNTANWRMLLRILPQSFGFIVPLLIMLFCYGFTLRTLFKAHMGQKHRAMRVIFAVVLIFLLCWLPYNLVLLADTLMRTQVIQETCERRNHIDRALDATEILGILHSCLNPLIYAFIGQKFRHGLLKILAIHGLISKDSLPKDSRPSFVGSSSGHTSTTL
T16 sequence (P43116 whole entry): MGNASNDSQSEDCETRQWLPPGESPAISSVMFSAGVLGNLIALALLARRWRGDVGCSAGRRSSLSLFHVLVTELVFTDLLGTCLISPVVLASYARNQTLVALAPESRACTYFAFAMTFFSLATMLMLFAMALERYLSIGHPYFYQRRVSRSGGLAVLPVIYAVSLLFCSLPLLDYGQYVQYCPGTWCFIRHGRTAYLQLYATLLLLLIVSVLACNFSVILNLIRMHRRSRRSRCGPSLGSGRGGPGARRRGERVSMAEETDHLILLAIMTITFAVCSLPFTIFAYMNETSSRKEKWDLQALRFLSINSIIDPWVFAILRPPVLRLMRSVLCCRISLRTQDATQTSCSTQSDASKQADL
T7 sequence (P21917 whole entry): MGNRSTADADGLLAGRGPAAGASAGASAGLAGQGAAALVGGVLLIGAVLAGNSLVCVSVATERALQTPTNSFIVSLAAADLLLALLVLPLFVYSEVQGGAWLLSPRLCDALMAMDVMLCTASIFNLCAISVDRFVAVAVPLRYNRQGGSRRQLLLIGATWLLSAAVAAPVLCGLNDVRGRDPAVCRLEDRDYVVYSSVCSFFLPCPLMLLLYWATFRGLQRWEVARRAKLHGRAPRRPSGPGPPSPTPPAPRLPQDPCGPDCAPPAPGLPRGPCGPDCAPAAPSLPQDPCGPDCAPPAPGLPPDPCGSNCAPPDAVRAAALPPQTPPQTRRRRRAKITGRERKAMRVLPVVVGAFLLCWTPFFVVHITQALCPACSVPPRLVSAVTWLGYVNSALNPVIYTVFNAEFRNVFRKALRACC
T13 sequence (P37288 whole entry): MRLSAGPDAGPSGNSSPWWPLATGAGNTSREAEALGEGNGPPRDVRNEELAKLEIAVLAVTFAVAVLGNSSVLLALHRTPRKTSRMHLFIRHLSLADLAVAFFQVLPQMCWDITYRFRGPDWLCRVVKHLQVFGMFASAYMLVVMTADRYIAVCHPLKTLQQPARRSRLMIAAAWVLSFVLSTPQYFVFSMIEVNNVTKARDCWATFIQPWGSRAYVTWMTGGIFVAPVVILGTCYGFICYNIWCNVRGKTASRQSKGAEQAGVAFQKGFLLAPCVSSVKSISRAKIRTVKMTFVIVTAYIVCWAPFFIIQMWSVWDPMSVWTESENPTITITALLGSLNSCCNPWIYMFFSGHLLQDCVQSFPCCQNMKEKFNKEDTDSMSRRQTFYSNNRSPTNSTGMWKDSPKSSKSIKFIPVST
T1 sequence (P35372 whole entry): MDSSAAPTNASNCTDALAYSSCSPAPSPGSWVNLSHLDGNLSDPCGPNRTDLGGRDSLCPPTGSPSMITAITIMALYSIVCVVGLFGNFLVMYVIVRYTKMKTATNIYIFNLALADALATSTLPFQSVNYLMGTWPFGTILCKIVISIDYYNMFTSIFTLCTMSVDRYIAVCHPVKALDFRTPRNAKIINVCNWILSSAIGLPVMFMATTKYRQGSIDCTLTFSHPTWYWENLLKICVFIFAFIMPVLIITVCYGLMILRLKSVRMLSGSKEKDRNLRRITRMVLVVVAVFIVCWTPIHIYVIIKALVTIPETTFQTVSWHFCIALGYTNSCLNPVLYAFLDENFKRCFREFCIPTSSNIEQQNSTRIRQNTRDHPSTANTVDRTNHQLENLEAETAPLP
T4 sequence (P21728 whole entry): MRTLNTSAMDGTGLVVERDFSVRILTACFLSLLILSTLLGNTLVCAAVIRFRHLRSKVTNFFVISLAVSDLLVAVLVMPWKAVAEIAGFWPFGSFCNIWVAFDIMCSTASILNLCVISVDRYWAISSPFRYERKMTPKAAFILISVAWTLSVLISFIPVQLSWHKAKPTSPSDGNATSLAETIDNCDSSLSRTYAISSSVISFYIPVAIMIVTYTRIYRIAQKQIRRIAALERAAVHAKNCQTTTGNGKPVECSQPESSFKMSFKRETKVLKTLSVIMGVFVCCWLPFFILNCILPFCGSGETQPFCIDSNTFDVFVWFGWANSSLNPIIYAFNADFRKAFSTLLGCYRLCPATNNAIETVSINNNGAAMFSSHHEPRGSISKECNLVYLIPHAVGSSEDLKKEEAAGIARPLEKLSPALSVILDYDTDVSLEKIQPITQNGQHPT
T15 sequence (P41143 whole entry): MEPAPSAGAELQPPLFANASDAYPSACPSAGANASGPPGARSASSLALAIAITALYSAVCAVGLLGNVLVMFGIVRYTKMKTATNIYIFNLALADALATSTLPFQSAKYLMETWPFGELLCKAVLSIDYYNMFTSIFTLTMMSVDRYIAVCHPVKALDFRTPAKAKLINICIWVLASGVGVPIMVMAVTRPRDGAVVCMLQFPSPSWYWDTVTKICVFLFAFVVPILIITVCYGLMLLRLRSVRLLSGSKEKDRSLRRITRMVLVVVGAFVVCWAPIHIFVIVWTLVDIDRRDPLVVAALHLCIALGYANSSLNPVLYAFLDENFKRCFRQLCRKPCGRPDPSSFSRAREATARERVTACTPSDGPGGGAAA
T5 sequence (P41145 whole entry): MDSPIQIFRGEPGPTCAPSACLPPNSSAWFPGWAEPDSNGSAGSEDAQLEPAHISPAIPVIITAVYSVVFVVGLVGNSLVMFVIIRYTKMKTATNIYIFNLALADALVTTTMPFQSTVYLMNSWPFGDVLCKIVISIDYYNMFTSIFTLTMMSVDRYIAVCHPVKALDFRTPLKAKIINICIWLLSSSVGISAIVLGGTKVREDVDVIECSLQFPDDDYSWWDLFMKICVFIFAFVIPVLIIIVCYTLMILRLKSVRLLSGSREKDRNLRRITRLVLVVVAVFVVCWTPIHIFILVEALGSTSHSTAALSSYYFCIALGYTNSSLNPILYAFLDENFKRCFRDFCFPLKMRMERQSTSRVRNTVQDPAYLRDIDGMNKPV
T12 sequence (P21452 whole entry): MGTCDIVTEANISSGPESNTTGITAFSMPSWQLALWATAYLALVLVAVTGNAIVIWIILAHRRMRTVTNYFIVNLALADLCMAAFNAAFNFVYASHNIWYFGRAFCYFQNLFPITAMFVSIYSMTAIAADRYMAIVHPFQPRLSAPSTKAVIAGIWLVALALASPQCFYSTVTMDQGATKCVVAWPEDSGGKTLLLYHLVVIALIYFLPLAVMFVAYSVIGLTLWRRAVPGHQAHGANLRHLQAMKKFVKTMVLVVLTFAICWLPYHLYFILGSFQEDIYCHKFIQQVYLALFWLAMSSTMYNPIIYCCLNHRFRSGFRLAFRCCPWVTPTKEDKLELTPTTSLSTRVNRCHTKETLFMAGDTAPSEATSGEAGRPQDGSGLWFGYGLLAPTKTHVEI
T17 sequence (P28335 33-458): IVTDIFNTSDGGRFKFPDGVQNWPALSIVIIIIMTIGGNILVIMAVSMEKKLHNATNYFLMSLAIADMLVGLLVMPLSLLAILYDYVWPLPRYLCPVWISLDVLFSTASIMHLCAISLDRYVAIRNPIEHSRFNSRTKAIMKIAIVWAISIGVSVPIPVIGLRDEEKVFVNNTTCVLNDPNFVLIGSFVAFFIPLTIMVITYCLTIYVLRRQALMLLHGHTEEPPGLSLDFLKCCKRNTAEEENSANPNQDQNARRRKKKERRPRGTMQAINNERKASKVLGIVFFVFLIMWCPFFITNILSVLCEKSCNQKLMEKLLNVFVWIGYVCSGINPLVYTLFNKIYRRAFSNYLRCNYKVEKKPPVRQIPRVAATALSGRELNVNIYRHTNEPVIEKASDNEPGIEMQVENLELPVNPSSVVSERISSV

Take `Cn1nc(-c2ccnn2C)cc1CNC(=O)c1cc(-c2ccco2)ccc1Cl` [Compound 19d, 2-Chloro-N-((1,2′-dimethyl-1H,2’H-[3,3′-bipyrazol]-5-yl)methyl)-5-(furan-2-yl)benzamide]: the “reversal of MK-801 deficit in 40 Hz ASSR intertrial coherence (PFC)” value in test [1] (0.8 mg/kg s.c.) is “no significant effect”; in test [1] (4 mg/kg s.c.) it was “complete reversal”; in [1] (10 mg/kg s.c.) it was “complete reversal”. Moreover, the inhibition at 10 µM in test [2] was 14%; in [3], 47%; in [5], 6%; in test [6] it was 3%; in [7] it was 11%; in test [8], -1%. Further, the inhibition at 10 µM in test [9] is 22%; in test [10], 3%; in test [11] it was 14%; in test [12] it was -6%; in [13] it was -1%; in test [14], 11%. Further, the inhibition at 10 µM in [15] is 9%; in [16] it was -1%; in test [17], 8%; in test [18], 41%; in [19], 3%; in test [20] it was 11%. Moreover, the “% Inhibition at 10 µM” value in [4] is 14%.
